Experimental data: patent US12370209B2, “Methods for the use of 5′-adenosine diphosphate ribose (ADPR)” (Invirsa, Inc., priority 2016, dated 2025)
Entries after “also recorded” stand apart in the source; their conditions may differ. Where two headings read alike, the source gives them in different places. Each block holds one compound with its values, some of them ahead of it.

Key:
[1] = tested on: tumor necrosis factor alpha (TNF-α) mediated cytotoxicity; conditions: in vitro, levels as low as; cited from earlier work
[2] = tested on: adenovirus serotype 3; test: Adenovirus plaque inhibition assay in A549 cells (Example 1); type: cell-based, Adenovirus serotype 3 (Ad3)
[3] = tested on: adenovirus serotype 3; test: Plaque inhibition of adenovirus serotype 3 by ADPR and lithium chloride (Example 2); type: cell-based, Adenovirus serotype 3 (Ad3)
[4] = tested on: A549 cell monolayers; conditions: human
[5] = tested on: AsPC1—human pancreatic adenocarcinoma; test: CellTiter-Glo cell viability assay, AsPC1; type: cell-based
[6] = tested on: H1437—human, lung adenocarcinoma, non-small cell lung cancer; test: CellTiter-Glo cell viability assay, H1437; type: cell-based
[7] = tested on: U87-MG—human, brain glioblastoma; test: CellTiter-Glo cell viability assay, U87-MG; type: cell-based
[8] = tested on: MV411—human, myelomonocytic leukemia; test: CellTiter-Glo cell viability assay, MV411; type: cell-based
[9] = tested on: A549 cell monolayers
[10] = tested on: Adenovirus 3; test: Plaque inhibition by dilithium ADPR, Ad3 in A549 cells (Example 5); type: cell-based, Adenovirus 3 (Ad3); conditions: 4, 2, 1 and 0.5 mg/mL
Procedure: (§1) Dilithium ADPR, 150 mg powder, was stored in a glass vial (“Sample A”) at 4° C. in the dark until use. On the day of assay, Sample A was solubilized to 200 mg/ml in 750 μL water for irrigation, then further diluted to target concentrations. […] Solubilized Sample A was tested for plaque inhibitory properties against Adenovirus 3 and Adenovirus 5 (Ad3 & Ad5).
(§2) Solubilized Sample A was diluted to 4 mg/mL, 2 mg/mL, 1 mg/mL and 0.5 mg/mL in Virus Growth Media (DMEM, 2% Fetal Bovine Serum (FBS) and antibiotic, antimycotic).
(§3) A549 cells were plated 7×10^4 cells per well in 6-well plates. After 18 hours, growth media was removed and 1 mL of each sample mixtures was added per well. After incubating for one hour at 37° C., approximately 50-75 plaque forming units Ad3 and separately Ad5 were added per well. Virus adsorbed to the cells for two hours and then media was aspirated from the monolayers and replaced with Virus Growth Media containing Sample A dilutions of 0, 0.5, 1.0, 2.0, and 4.0 mg/mL, and agarose.

[11] = tested on: Adenovirus 5; test: Plaque inhibition by dilithium ADPR, Ad5 in A549 cells (Example 5); type: cell-based, Adenovirus 5 (Ad5); conditions: 4, 2, 1 and 0.5 mg/mL
Procedure: as §1, §2, §3

[12] = tested on: A549 cells; test: Thinning of the A549 monolayer in the plaque assay (Example 5); type: cell-based, human
Procedure: as §3
Ad3 and Ad5 plaque size and number were reduced by Sample A at 4 mg/mL and 2 mg/mL. […] The thin monolayer made it hard to delineate plaques. Very few plaques were visible as compared to control. […] Mean plaque counts at Sample A concentrations were as follows: • Ad3: 4 mg/mL-29; 2 mg/mL-10; 1 mg/mL-44; 0.5 mg/mL-54; 0 mg/mL-55 • Ad5: 4 mg/mL-7; 2 mg/mL-7; 1 mg/mL-25; 0.5 mg/mL-53; 0 mg/mL-65 Conclusion

[13] = tested on: A549 (human alveolar adenocarcinoma) cell culture; test: MTT incorporation in A549 cell culture (Example 8); type: cell-based; conditions: for Average MTT incorporation as measured by OD560: 48 hours
Procedure: ADPR, sodium Salt, (Sigma A0752), was tested in A549 (human alveolar adenocarcinoma) cell culture to determine its effect on replication. ADPR was evaluated at five concentrations by incubation for 48 hours with A549 cells (previously grown to a monolayer) at 37° C. After incubation, MTT (3-(4,5-dimethylthiaz ol-2-yl)-2,5-diphenyltetrazolium bromide) dye was added to each well and live cells were measured by blue dye incorporation.

[14] = tested on: A549 cell monolayers; test: Toxicity score on A549 cell monolayers (Example 1)
[15] = tested on: A549 cell monolayers; test: Toxicity score on A549 cell monolayers (Example 2)
[16] = tested on: Adenovirus serotype 5 (Ad5); test: Viral keratoconjunctivitis model, modified McDonald-Shadduck scoring (Example 6); type: in vivo, Oryctolagus cuniculus (New Zealand White rabbits)
Text: • Species: Oryctolagus cuniculus • Strain: New Zealand White rabbits • Sex: Female • Age: Commensurate with weight • Weight: Approximately 2.5 to 3.0 kilograms at study start • Number: 8 (naïve) • Method of Identification: Ear tag and cage label • Minimum Acclimation: 5 days
• 1. Inoculum—Adenovirus serotype 5 (Ad5) • (a) Physicochemical Characteristics and Composition Description: Virus propagated in A549 cells in DMEM with 8% fetal bovine serum. Cells and supernatant harvested, sonicated, and clarified by low speed centrifugation. Infectious titer by TCID50: 5.0×109 plaque-forming-units (PFU) per mL. • (b) Storage Condition: frozen at −60 to −80° C. • 2. Test Article—Dilithium ADPR • (a) Molecular weight: approximately 571.18 • (b) Storage Condition: Refrigerated at 2-8° C. • 3. Control Vehicle • (a) Composition: 0.31% sodium chloride, 0.1% sodium tetraborate, 1% boric acid, 0.35% polyethylene glycol 300 (PEG-300) in deionized (DI) water • (b) Storage Condition: Refrigerated at 2° C.-8° C. • 4. Test/Control Article Preparation • (a) Ad5 was supplied in a single aliquot for both days of inoculation. Immediately prior to the first viral inoculation on Day −1, the virus was thawed and brought to room temperature. 0.05 mL (50 μL) of the 5.0×10^9 PFU Ad5/mL solution was diluted with 1.5 mL of Dulbecco's Modified Eagle Medium (DMEM) to create a 1.61×10^8 PFU Ad5/mL solution. After the first inoculation on Day −1, the remaining virus solution was stored refrigerated at 2-8° C. until the second inoculation on Day 0. Virus solution was not re-frozen. • (b) Vehicle: 55.8 mg sodium chloride, 18 mg of sodium tetraborate, 180 mg of boric acid, and 63 mg of PEG-300 were weighed out into a vial. 14 mL DI water was added, and vial contents were swirled, vortexed, and/or sonicated if needed until a clear solution is formed. The pH of the solution was tested using pH tester strips and adjusted to 7.0-7.2, if necessary, using sodium hydroxide (NaOH) or additional boric acid. The volume was then brought up to 18 mL with additional DI water to make a 0.31% sodium chloride, 0.1% sodium tetraborate, 1% boric acid, 0.35% PEG-300 solution. The vial contents were sterile filtered through a 0.2 or 0.22 μm filter. • (c) Dilithium ADPR—High Dose: 240 mg of dilithium ADPR was weighed out into a vial. 12 mg of sodium tetraborate, 120 mg of boric acid, and 42 mg of PEG-300 were weighed out into a separate vial. 7 mL DI water was added, and vial contents were swirled, vortexed, and/or sonicated if needed until a clear solution is formed. The solution was transferred to the vial containing dilithium ADPR. The volume was brought up to […] with DI water, and vial contents were swirled, vortexed, and/or sonicated if needed until a clear solution is formed. […]

[17] = AsPC1, 72 hours treatment, average of two values
[18] = H1437, 72 hours treatment, average of two values
[19] = U87-MG, 72 hours treatment, average of two values
[20] = MV411, 72 hours treatment, average of two values
[21] = 0.5%, 1% and 2% topical TID, Day 3 and Day 7 compared to baseline on Day 1, p<0.01

Compound: Nc1ncnc2c1ncn2[C@@H]1O[C@H](COP(=O)(O)OP(=O)(O)OC[C@H]2OC(O)[C@H](O)[C@@H]2O)[C@@H](O)[C@H]1O (some centres unmarked) [ADPR, 5′-adenosine diphosphate ribose]
ADPR level with measurable inhibition of TNF-α mediated cytotoxicity [1]: 5 mg/L

Compound: Nc1ccn(C[C@@H](CO)OCP(=O)(O)O)c(=O)n1 [Cidofovir]
Plaque Counts ([2]; 20 μM Cidofovir): 39
Plaque appearance ([2]; 100 μM Cidofovir): pinpoint
Plaque size and number ([2]; cidofovir, as concentrations were increased (20, 100 μM)): decreased
Plaque appearance ([3]; 3 μM Cidofovir): small plaques
Plaque appearance ([3]; 33 μM Cidofovir): Pinpoint plaques

Compound: NC(=O)c1cccnc1 [Compound N, Nicotinamide]
Plaque appearance ([2]; 600 μg/ml nicotinamide alone): much larger
Plaque Counts ([2]; Compound N 6000 μg/ml, 0 μg/ml Compound A, Ad3, A549): Toxic
Toxicity Scores (T value) ([4]; 60 μg/ml): T = 0
Toxicity Scores (T value) ([4]; 600 μg/ml): T = 2
Toxicity Scores (T value) ([4]; 6000 μg/ml): T = 3

IC50 [5, 17]: 1.5 µM
IC50 [6, 18]: 0.2 µM
IC50 [7, 19]: 0.0012 mM
IC50 [8, 20]: 1.17 µM
Compound: CCc1c2c(nc3ccc(O)cc13)-c1cc3c(c(=O)n1C2)COC(=O)[C@]3(O)CC [SN38]

Compound: [Cl-].[Li+] [Sample L, Lithium Chloride]
Plaque appearance [3]: much larger; also recorded: very large plaques
IC50 [5]: > 3000 µM
IC50 [6]: > 3000 µM
IC50 [7]: > 3 mM
IC50 [8]: > 6000 µM
Toxicity Scores (T value) [9]: T = 0

Compound: Adenosine 5′-diphosphoribose Sodium Salt [Compound A]
Plaque size as compared to control ([2]; Compound A at 2000 and 6000 μg/ml): reduced
Plaque size as compared to control ([3]; Sample A at 0.44, 1.33 and 4.0 mM): reduced
Plaque size and number [10]: reduced
Plaque size and number [11]: reduced
Monolayer compared to cell control wells ([12]; 1 mg/mL and 0.5 mg/mL): slight thinning
Monolayer compared to control wells ([12]; 4 and 2 mg/mL): moderate thinning
Average MTT incorporation as measured by OD560 ([13]; 1.5 mg/mL): 0.62±0.08
Average MTT incorporation as measured by OD560 ([13]; 3 mg/mL): 0.61±0.09
Average MTT incorporation as measured by OD560 ([13]; 6 mg/mL): 0.72±0.04
Average MTT incorporation as measured by OD560 ([13]; 12 mg/mL): 0.69±0.01
Average MTT incorporation as measured by OD560 ([13]; 24 mg/mL): 0.55±0.02
Effect on MTT incorporation ([13]; at 24 mg/mL): mild reduction
Effect on MTT incorporation ([13]; up to 12 mg/mL (equal to 21 mM)): did not reduce
Toxicity Scores (T value) ([14]; Compound A 2000 μg/ml): T = 0
Toxicity Scores (T value) ([14]; Compound A 6000 μg/ml): T = 0
Toxicity Scores (T value) ([15]; Sample A 0.44 mM): T = 0
Toxicity Scores (T value) ([15]; Sample A 1.33 mM): T = 0
Toxicity Scores (T value) ([15]; Sample A 4.0 mM): T = 0

Compound: Dilithium ADPR
Composite modified McDonald-Shadduck score (total of all sub scores) [16, 21]: significantly improved; also recorded: significant improvement
Subscore conjunctival congestion [16, 21]: improvement that was statistically significant
Subscore surface area of corneal involvement ([16]; 0.5%, 1% and 2% topical TID, Day 3 and Day 7 compared to baseline on Day 1, p<0.05): improvement that was statistically significant
Reduction in the composite score ([16]; all doses (0.5%, 1.0% and 2.0%), by Day 7): > 80%
IC50 [5, 17]: 570 µM
IC50 [6, 18]: 531 µM
IC50 [7, 19]: 1.56 mM
IC50 [8, 20]: 323 µM
